{"source": "patent US20120328696A1", "about": "“ANTI-PARKINSONIAN COMPOUND ACETYLSALICYLIC ACID MALTOL ESTER” (Hutecs Korea Pharmaceutical Co., Ltd., priority 2008, published 2012)", "assay_type_in_all_cases": "in vivo", "key": {"phospho MDM2-ser 166": {"test_system": "phospho MDM2-ser 166", "assay": "Striatal phospho-MDM2 expression after MA (western blot)", "conditions": "p.o.; AME 50, EBS 20, rottlerin 20 mg/kg; MA 8 mg/kg i.p. x4; GPx-1 (+/+) and (−/−) mice", "method": "(§1) The mice received four times of MA (8 mg/kg, ip) or saline as a 2 hr-time interval. Chemicals (AME, EBS, and PKC inhibitors) were administrated for 5 consecutive days (twice daily), and were given 2 times at 4 hr and 30 min before the first MA injection as shown in the experimental schedule. Animals were sacrificed at 4 hrs and 3 days after the final MA administration.\n(§2) The western blot assays was performed as described previously (Kim et al., 2003). Tissues were homogenized in lysis buffer, containing 200 mM Tris HCl (pH 6.8), 1% SDS, 5 mM EGTA (ethylene glycol tetraacetic acid), 5 mM EDTA (ethylenediaminetetraacetic acid), 10% glycerol, 1× phosphatase inhibitor cocktail I, 1× protease inhibitor cocktail. Lysate was centrifuged at 12,000×g for 30 min and supernatant fraction was used for Western blot analysis. Proteins (20-50 ug/lane) were separated by 6%, 8%, 10% or 15% sodium dodecyl sulfate-polyacrylamide gel electrophoresis and transferred onto the PVDF membranes. Following transfer, the membranes were preincubated with 5% non-fat milk and incubated overnight at 4° C. with primary antibody against β-actin (1:50000, Sigma, St. Louis, Mo., USA), TH (1:5000, Chemicon), TH phosphor-Ser 19 (1:1000, Chemicon,), TH phosphor-Ser 31 (1:500, Chemicon), TH phosphor-Ser 40 (1:500, Chemicon), F4/80 (1:500, Serotec), GPx1 (1:2500, AbFrontier), PKC (1:5000, Santa Cruz biotechnology, Santa Cruz, Calif., USA), p53 (1:5000, Cell signaling, Beverly, Mass., USA), MDM2 (1:1000, BD Pharmingen, San Jose, Calif., USA), MDM2 phospho-Ser 166 (1:1000, cell signaling), BDNF (1:500, Chemicon), GDNF (1:250, Santa Cruz), COX-2 (1:2000, Cayman, Ann Arbor, MC, USA), IL-6 (1:2000, Abcam, Cambridge, Mass., USA), TNF-a (1:1000, R&D Systems, Mckinley place NE, NM, USA), IFN-γ (1:500, Chemicon) or Iba-1 (1:500, Wako, Osaka, Japan). And then, membranes were incubated with HRP-conjugated secondary anti-rabbit IgG (1:1000, GE healthcare, Piscataway, N.J., USA), anti-mouse IgG (1:1000, Sigma) or anti-goat IgG (1:1000, Sigma) for 2 h. […]"}, "p53": {"test_system": "p53", "assay": "Striatal p53 expression after MA (western blot)", "conditions": "p.o.; AME 50, EBS 20, rottlerin 20 mg/kg; MA 8 mg/kg i.p. x4; GPx-1 (+/+) and (−/−) mice", "method": "as §1, §2"}, "TH phospho-ser 40": {"test_system": "TH phospho-ser 40", "assay": "Striatal phospho-TH-ser 40 after MA (western blot)", "conditions": "p.o.; AME 50, EBS 20, rottlerin 20 mg/kg; MA 8 mg/kg i.p. x4; GPx-1 (+/+) and (−/−) mice", "method": "as §1, §2"}, "[1]": {"test_system": "GPx-1 (+/+)- and GPx-1 (−/−)-mice", "assay": "MA-induced hyperthermia (rectal temperature)", "conditions": "MA 8 mg/kg i.p. x4", "method": "as §1\nRectal temperature was measured in the MA- or saline-treated mice. Measurement was performed at constant daytime intervals starting at 9:00 A.M. to avoid the influence on circadian variations. Rectal temperature was measured by inserting a thermometer probe lubricated with oil at least 3 cm into the rectum of the mice. To prevent sudden movements occurring especially in MA-treated mice, animals were gently handled with a wool glove while their tail was moved to allow the probe insertion. This was done to prevent the effects of restrain stress on rectal temperature. When the attempt to insert probe was not successful (i.e., sudden movements of the animal or the need to restrain the mouse), the animal was excluded from the groups."}, "C57BL/6 mice [2]": {"test_system": "C57BL/6 mice", "assay": "Locomotor activity after MPTP", "conditions": "AME 25 mg/kg p.o.; MPTP 25 mg/kg i.p. once a day for 7 days; 3 days after final MPTP", "method": "(§3) AME (25 mg/kg, p.o) administration was started 4 days (twice daily) before the first injection of MPTP and continued for 7 consecutive days (once a day). MPTP was injected (25 mg/kg, i.p) once a day 1 h after AME treatment for consecutive 7 days.\nLocomotor activity measured for 30 min 3 days after the last MPTP administration using an automated video-tracking system (Noldus Information Technology, Wagenin, The Netherlands). Eight test boxes (40×40×30 cm high) were operated simultaneously by an IBM computer. Animals were studied individually during locomotion in each test box, where they were adapted for 5 min before starting the experiment. […] The distance traveled in cm by the animals in horizontal locomotor activity was analyzed. Data were collected and analyzed between 09:00 and 17:00 h (Kim et al., 2001)."}, "C57BL/6 mice [3]": {"test_system": "C57BL/6 mice", "assay": "Rota-rod test after MPTP", "conditions": "AME 25 mg/kg p.o.; MPTP 25 mg/kg i.p. once a day for 7 days; 3 days after final MPTP", "method": "as §3\nThe apparatus (Ugo Basile model 7650) consisted of a base platform and a rotating rod with a nonslippery surface. The rod was placed at a height of 15 cm from the base. The rod, 30 cm in length, was divided into 5 equal sections by 6 opaque disks (so that the subjects cannot be distracted by one another). To assess motor performance, the mice were first trained on the apparatus 2 minutes at a rate 4 r.p.m. per 30 s prior to the test. The test was performed 30 minutes after training and an accelerating paradigm was applied at a rate 4 r.p.m. per 30 s, starting from 4 r.p.m. to a maximum speed of 40 r.p.m., then the rotation speed was kept constant at 40 r.p.m. for a maximum of 300 s. The duration for which the animal could maintain balance on the rotating drum was measured as the rotarod latency, with a maximal cut-off time of 300 s."}, "[4]": {"conditions": "p.o., AME 25 or 50, EBS 10 or 20, rottlerin 10 or 20 mg/kg (p<0.01 at high dose), GPx-1 (+/+) and (−/−) mice"}}, "data": [{"molecule": "O=c1c2ccccc2[se]n1-c1ccccc1", "note": "[EBS, 2-phenyl-1,2-benzisoselenazol-3(2H)-one]", "values": [{"measurement": "effect on MA-induced decrease in phospho-MDM2 expression", "setting": "phospho MDM2-ser 166", "result": "significantly attenuated"}, {"measurement": "effect on MA-induced increase in striatal p53 expression", "setting": "p53", "result": "significantly inhibited MA-induced increase in p53 expression"}, {"measurement": "effect on MA-induced decrease in phospho-TH-ser 40", "setting": "TH phospho-ser 40", "result": "significantly blocked"}, {"measurement": "effect on MA-induced hyperthermia", "setting": "[1]; [4]", "result": "attenuated hyperthermia induced by MA in a dose-related manner"}]}, {"molecule": "CC(=O)Oc1ccccc1C(=O)Oc1c(C)occc1=O", "note": "[AME, 3-(2-methyl-4-pyronyl)-2-acetyloxybenzoate]", "values": [{"measurement": "effect on MPTP-induced hypolocomotor activity", "setting": "C57BL/6 mice [2]", "result": "significant attenuated"}, {"measurement": "effect on MA-induced decrease in phospho-MDM2 expression", "setting": "phospho MDM2-ser 166", "result": "significantly attenuated"}, {"measurement": "effect on MA-induced increase in striatal p53 expression", "setting": "p53", "result": "significantly inhibited MA-induced increase in p53 expression"}, {"measurement": "effect on MPTP-induced impairment in rota-rod performance", "setting": "C57BL/6 mice [3]", "result": "significantly attenuated"}, {"measurement": "effect on MA-induced decrease in phospho-TH-ser 40", "setting": "TH phospho-ser 40", "result": "significantly blocked"}, {"measurement": "effect on MA-induced hyperthermia", "setting": "[1]; [4]", "result": "attenuated hyperthermia induced by MA in a dose-related manner"}]}, {"molecule": "CC(=O)c1c(O)c(C)c(O)c(Cc2c(O)c3c(c(C(=O)/C=C/c4ccccc4)c2O)OC(C)(C)C=C3)c1O", "note": "[rottlerin]", "values": [{"measurement": "effect on MA-induced decrease in phospho-MDM2 expression", "setting": "phospho MDM2-ser 166", "result": "significantly attenuated"}, {"measurement": "effect on MA-induced increase in striatal p53 expression", "setting": "p53", "result": "significantly inhibited MA-induced increase in p53 expression"}, {"measurement": "effect on MA-induced decrease in phospho-TH-ser 40", "setting": "TH phospho-ser 40", "result": "significantly blocked"}, {"measurement": "effect on MA-induced hyperthermia", "setting": "[1]; PKC inhibitors intra-striatal (doses of Table 1), GPx-1 (+/+) and GPx-1 (−/−) mice", "result": "significantly blocked MA-induced hyperthermia in a dose-dependent manner"}, {"measurement": "effect on MA-induced hyperthermia", "setting": "[1]; [4]", "result": "attenuated hyperthermia induced by MA in a dose-related manner"}]}]}
